What follows are compounds tested on S. cerevisiae tim23-1 mutant growth, luminescence (assay: tim23-1 mutant yeast growth inhibitors, dose response, luminescence, uHTS hits (AID 493002);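 also: yeast grown roughly 22 hours at 25 °C before the luminescence read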).
For `Cc1ccc(NC(=O)c2cc(C)n(-c3ccccc3)c2C)cc1`, the IC50 was 21 µM.
`COC(=O)c1cccc(NC(=O)c2ccc(OC)c(Cl)c2)c1` gave an IC50 of 20.6 µM.
`O=C1/C(=C/c2ccncc2)SC(=S)N1C1CCCCC1` gave an IC50 of 5.72 µM.
In the case of `N#C/C(=C\c1c[nH]c2ccccc12)C(=O)NC1CCCC1`, the IC50 is reported as 31.5 µM.
`O=C(c1ccccc1)N1N=C(c2cccs2)CC1c1ccccc1O` (configuration not stated) showed an IC50 of 22.8 µM.
Compound `Cc1cc(C(=O)CCl)c(C)n1CCc1ccc(Cl)cc1` has an IC50 of 3.7 µM.
With `CNC(=S)N/N=C/c1cc(Br)cc(Br)c1O` the IC50 was 3.14 µM.
Compound `N#C/C(C(N)=O)=c1/ccc2c(c1)N1C3=C(CCCC3)CC3CCCCC31N=2` (configuration not stated) has an IC50 of 7.43 µM.
Work on `CCOC(=O)c1c(C)oc2c1c(C(c1cccnc1)N1CCCCC1)c(O)c1ccccc12` (configuration not stated) yielded an IC50 of 21.5 µM.
For `CC(C)CN(C(=O)c1ccc2c(c1)OCCO2)c1c(N)n(Cc2ccccc2)c(=O)[nH]c1=O`, the IC50 was 14.2 µM.
`COc1cccc(C2=NN(C(=O)c3ccco3)C(c3ccco3)C2)c1` (configuration not stated) showed an IC50 of 20.4 µM.
Compound `O=C(N/N=C/C(Br)=C/c1ccccc1)c1cccs1` has an IC50 of 6.9 µM.
Compound `O=c1c2ccccc2[nH]c(=S)n1CCN1CCC(=C(c2ccc(F)cc2)c2ccc(F)cc2)CC1` has an IC50 of 5.44 µM.
`Cc1ccc(C(=O)Nc2nc(C(C)(C)C)cs2)s1` was tested, and the IC50 was 13.6 µM.
`Cc1cnc(NC(=O)c2cc3c(s2)CCCC3)s1` gave an IC50 of 14.5 µM.
Compound `CC1CCN(c2ccc(-c3cccs3)nn2)CC1` has an IC50 of 6.21 µM.
In the case of `N#C/C(=C\c1ccc(Cl)cc1)C(=O)NC1CC1`, the IC50 is reported as 7.09 µM.
For `O=C(Nc1ccc(Nc2ccccc2)cc1)c1ccccc1F`, the IC50 was 21.9 µM.
With `CCOC(=O)Nc1ccc2c(c1)Nc1ccccc1S2` the IC50 was 11.3 µM.
`Cc1ccccc1OCCCSc1nc2ccccc2[nH]1` gave an IC50 of 9.44 µM.
Work on `O=C(N/N=C/c1ccc2cccnc2c1)c1ccco1` yielded an IC50 of 18.8 µM.
For `O=C(COC(=O)CC1CCCC1)Nc1ccc(Cl)cc1`, the IC50 was 13.2 µM.
Work on `O=[N+]([O-])c1cc(O)c2ncccc2c1` yielded an IC50 of 11.4 µM.
For `O=Cc1cccnc1SCc1ccccc1`, the IC50 was 12.6 µM.
`Cc1nc2ccccc2n1/N=C/c1ccc([N+](=O)[O-])s1` gave an IC50 of 1.58 µM.
Compound `N#Cc1c(NC(=O)C2CC2)sc2c1CCCCC2` has an IC50 of 14.6 µM.
`c1cnc2c(c1)ccc1cccnc12` was tested, and the IC50 was 9.59 µM.
In the case of `Cc1ccc(Nc2ccc([N+](=O)[O-])nc2[N+](=O)[O-])cc1`, the IC50 is reported as 44.3 µM.
`O=S1(=O)N[C@@H](Cc2ccccc2)COc2cc(Br)ccc21` was tested, and the IC50 was 18.4 µM.
Compound `O=Cc1ccccc1OCc1ccc2c(c1)OCO2` has an IC50 of 6.59 µM.
`CN(C(=O)c1ccco1)c1nnc(C23CC4CC(CC(C4)C2)C3)s1` was tested, and the IC50 was 20.8 µM.
For `O=C(CSc1cccc[n+]1[O-])CSc1cccc[n+]1[O-]`, the IC50 was 5.83 µM.
Work on `Nc1nc(Nc2ccccc2)sc1C(=O)c1ccccc1` yielded an IC50 of 21 µM.
`CC1(C)CC(=O)C=C(c2ccc(I)cc2)C1` showed an IC50 of 14.8 µM.
Compound `C/C(=N\Nc1cc(N2CCCCC2)nc(C)n1)c1ccc(Br)cc1` has an IC50 of 14.2 µM.
For `Cc1ccc(NC(=O)CN2C(=O)CN=C(c3ccccc3)c3cc(Cl)ccc32)cc1`, the IC50 was 13.1 µM.
`COc1cccc(Nc2nc3ccc(OC)cc3s2)c1` gave an IC50 of 10.1 µM.
In the case of `O=C(Nc1nsc(-c2ccccc2)n1)c1cccs1`, the IC50 is reported as 8.04 µM.
With `CCCOc1cccc(C(=O)N/N=C/c2coc3ccccc3c2=O)c1` the IC50 was 13.4 µM.
`CCC1CCc2sc(C(=O)N(C)CC(=O)Nc3ccc(OC)cc3)cc2C1` (configuration not stated) showed an IC50 of 19.5 µM.
`CCOc1nc2ccccc2cc1C=O` showed an IC50 of 3.43 µM.
With `Cc1[nH]c2ccccc2c1C(=O)/C=C/c1ccccc1` the IC50 was 9.05 µM.
With `Cc1ccc2c(c1)COc1c3ccc(C(=O)NC(C)C)cc3nn1-2` the IC50 was 24 µM.
Compound `COc1ccc(N2CCN(CCC(=O)c3ccc4ccccc4c3)CC2)cc1` has an IC50 of 8.84 µM.
`Cc1ccc(C(=O)C(C)OC(=O)c2cc3cc([N+](=O)[O-])ccc3oc2=O)cc1` (configuration not stated) gave an IC50 of 14.9 µM.
`Cc1[nH][nH]c(=O)c1C(c1ccc(-c2ccc(F)cc2)o1)c1c(C)[nH][nH]c1=O` showed an IC50 of 7.74 µM.
With `O=C(Nc1ccc(-c2nc3ccccc3[nH]2)cc1)C1CCCO1` (configuration not stated) the IC50 was 14.4 µM.

Source: PubChem BioAssay AID493002 (Sanford-Burnham Center for Chemical Genomics, 2010)
